Test results published in ChEMBL document CHEMBL3046884, “Optical Resolution and Biological Activities of S-23121, a New Cereal Herbicide” (Agric Biol Chem, 1991).

Tested on: Cucumis sativus
Test: Induction of membrane damage in Cucumis sativus (cucumber) cotyledon disks assessed as compound level causing […] ethane production incubated under white light for 24 hr at 20 degC
Assay type: functional

Structure (SMILES) | Activity
C#C[C@H](C)Oc1cc(N2C(=O)C3=C(CCCC3)C2=O)c(F)cc1Cl [(S)-S-23121] | 21 nM
C#C[C@@H](C)Oc1cc(N2C(=O)C3=C(CCCC3)C2=O)c(F)cc1Cl | 178 nM
